Results on 1 compound are retold here after BindingDB's records for patent US20250162989 (Vincere Biosciences, 2025).

Structures are written as SMILES. Bounds are passed on as bounds.

This assay deals with T1, Ubiquitin carboxyl-terminal hydrolase 30 (Homo sapiens, UniProt Q70CQ3).
T1 sequence (Q70CQ3 whole entry): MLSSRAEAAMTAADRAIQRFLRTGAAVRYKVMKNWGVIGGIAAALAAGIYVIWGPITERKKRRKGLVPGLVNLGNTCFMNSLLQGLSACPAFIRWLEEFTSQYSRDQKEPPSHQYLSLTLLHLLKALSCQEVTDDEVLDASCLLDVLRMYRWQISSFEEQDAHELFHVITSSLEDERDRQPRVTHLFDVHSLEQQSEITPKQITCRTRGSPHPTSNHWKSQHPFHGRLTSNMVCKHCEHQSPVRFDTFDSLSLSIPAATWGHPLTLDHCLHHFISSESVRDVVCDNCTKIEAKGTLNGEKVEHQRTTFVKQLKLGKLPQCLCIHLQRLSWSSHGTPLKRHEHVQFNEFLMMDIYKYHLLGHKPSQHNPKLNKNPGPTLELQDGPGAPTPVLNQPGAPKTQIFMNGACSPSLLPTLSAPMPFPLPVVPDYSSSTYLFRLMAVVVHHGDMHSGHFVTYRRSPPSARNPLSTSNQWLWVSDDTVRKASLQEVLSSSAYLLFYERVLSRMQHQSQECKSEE
The assay is described as follows: In Vitro USP30 Biochemical Assay.

Protocol: In vitro biochemical assay to establish the potency of compounds for USP30 inhibition: a 384-well plate assay using a fluorophore tagged substrate of USP30 was used for in vitro screening of compounds. Each compound was tested at 10 different concentrations (0.5 to 10,000 nM) in duplicate wells. […] Data were analyzed using Graph Pad Prism software with a four-parameter (floating slope) fit to log concentration data to determine IC50s.

For orientation: IC50 means the concentration needed to halve the response being measured. Take `CC(C)(C)NS(=O)(=O)c1ccc(NC(=O)[C@H]2CCCN2C(=O)c2ccc(F)cc2)cc1` [US20250162989, Compound I-51]: the IC50 was above 10 µM.
